Test results from patent publication EP2951180B1, “2,6,7,8 SUBSTITUTED PURINES AS HDM2 INHIBITORS” (Merck Sharp & Dohme Corp., priority 2013, dated 2014).

These molecules were tested against T1, HDM2 (Homo sapiens, UniProt Q00987) (assay: HDM2 FRET assay (inhibition of binding of FITC labeled p53-pocket peptide to HDM2)). Conditions: Table 22; read-out: FRET IC50.
T1 construct: Thioredoxin (N); made in house; host or cells: E. coli strain BL21(DE3)Rosetta
Outline: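 Compounds were tested in 10-point serial dilution against 0.5 nM recombinant HDM2 binding 3 nM fluorescein-labeled p53-pocket peptide. Detection used 0.25 nM terbium cryptate anti-6xHis antibody in PBS buffer containing 0.01% BSA and 0.01% Tween-20.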

T1 sequence (Q00987 17-125): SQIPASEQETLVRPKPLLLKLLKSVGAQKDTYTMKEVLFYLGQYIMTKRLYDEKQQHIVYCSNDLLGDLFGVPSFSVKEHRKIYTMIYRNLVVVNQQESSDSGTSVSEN

Compared with C[C@@H](Nc1nc(-c2noc(=O)[nH]2)nc2nc(C3(c4ccccc4F)CC3)n(C[C@H]3CC[C@H](C)CC3)c12)C1CCC1 [Example 22.5, 3-(6-{[(1R)-1-cyclobutylethyl]amino}-8-[1-(2-fluorophenyl)cyclopropyl]-7-[(trans-4-methylcyclohexyl)methyl]-7H-purin-2-yl)-1,2,4-oxadiazol-5(4H)-one], C[C@@H](Nc1nc(-c2noc(=O)[nH]2)nc2nc(C3(c4cccc(F)c4)CC3)n(C[C@H]3CC[C@H](C)CC3)c12)C1CCC1 [Example 22.49, 3-(6-{[(1R)-1-cyclobutylethyl]amino}-8-[1-(3-fluorophenyl)cyclopropyl] -7-[(trans-4-methylcyclohexyl)methyl] -7H-purin-2-yl)-1,2,4-oxadiazol-5(4H)-one] is 4.7-fold higher in IC50: 3.57 nM for the first, 16.9 nM for the second. The first is the more potent here.

First: C[C@@H](Nc1nc(-c2noc(=O)[nH]2)nc2nc(C3(c4ccccn4)CC3)n(C[C@H]3CC[C@H](C)CC3)c12)C1CCC1 [Example 22.10, 3-[6-{[(1R)-1-cyclobutylethyl]amino}-7-[(trans-4-methylcyclohexyl)methyl]-8-(1-pyridin-2-ylcyclopropyl)-7H-purin-2-yl]-1,2,4-oxadiazol-5(4H)-one]
Second: C[C@@H](Nc1nc(-c2noc(=O)[nH]2)nc2nc(C3(c4cccnc4)CC3)n(C[C@H]3CC[C@H](C)CC3)c12)C1CCC1 [Example 22.39, 3-[6-{[(1R)-1-cyclobutylethyl]amino}-7-[(trans-4-methylcyclohexyl)methyl] -8-(1-pyridin-3-ylcyclopropyl)-7H-purin-2-yl]-1,2,4-oxadiazol-5(2H)-one]
The IC50 of the first is 2.2-fold lower: 6.29 nM for the first, 13.9 nM for the second. The first is the more potent here.

Compared with C=C(c1nc2nc(-c3noc(=O)[nH]3)nc(N[C@H](C)C3CCC3)c2n1C[C@H]1CC[C@H](C)CC1)C(C)(C)C [Example 22.11, 3-(6-{[(1R)-1-cyclobutylethyl]amino}-8-(2,2-dimethyl-1-methylidenepropyl)-7-[(trans-4-methylcyclohexyl)methyl]-7H-purin-2-yl)-1,2,4-oxadiazol-5(4H)-one], C[C@@H](Nc1nc(-c2noc(=O)[nH]2)nc2nc(C(C)(C)O)n(C[C@H]3CC[C@H](C)CC3)c12)C1CCC1 [Example 22.44, 3-(6-{[(1R)-1-cyclobutylethyl]amino}-8-(1-hydroxy-1-methylethyl)-7-[(trans-4-methylcyclohexyl)methyl] -7H-purin-2-yl)-1,2,4-oxadiazol-5(4H)-one] is 3.6-fold higher in IC50: 5.73 nM for the first, 20.5 nM for the second.

Compared with C[C@@H](Nc1nc(-c2noc(=O)[nH]2)nc2nc(CC(C)(C)O)n(C[C@H]3CC[C@H](C)CC3)c12)C1CCC1 [Example 22.16, 3-(6-{[(1R)-1-cyclobutylethyl]amino}-8-(2-hydroxy-2-methylpropyl)-7-[(trans-4-methylcyclohexyl)methyl]-7H-purin-2-yl)-1,2,4-oxadiazol-5(4H)-one], CC(=O)c1nc2nc(-c3noc(=O)[nH]3)nc(N[C@H](C)C3CCC3)c2n1C[C@H]1CC[C@H](C)CC1 [Example 22.32, 3-(8-acetyl-6-{[(1R)-1-cyclobutylethyl]amino}-7-[(trans-4-methylcyclohexyl)methyl] -7H-purin-2-yl)-1,2,4-oxadiazol-5(2H)-one] is 2.2-fold lower in IC50: 55.6 nM for the first, 25.3 nM for the second.

Compared with C[C@@H](Nc1nc(-c2noc(=O)[nH]2)nc2nc(C(=O)c3ccccc3)n(C[C@H]3CC[C@H](C)CC3)c12)C1CCC1 [Example 22.21, 3-[6-{[(1R)-1-cyclobutylethyl]amino}-7-[(trans-4-methylcyclohexyl)methyl]-8-(phenylcarbonyl)-7H-purin-2-yl]-1,2,4-oxadiazol-5(4H)-one], C[C@@H](Nc1nc(-c2n[nH]c(=O)o2)nc2nc(C(=O)c3ccccc3)n(C[C@H]3CC[C@H](C)CC3)c12)C1CCC1 [Example 22.22, 5-[6-{[(1R)-1-cyclobutylethyl]amino}-7-[(trans-4-methylcyclohexyl)methyl]-8-(phenylcarbonyl)-7H-purin-2-yl]-1,3,4-oxadiazol-2(3H)-one] is 3.9-fold higher in IC50: 1 nM for the first, 3.93 nM for the second. The first is the more potent here.

Going from C[C@@H](Nc1nc(-c2noc(=O)[nH]2)nc2nc(C(O)c3ccccc3)n(C[C@H]3CC[C@H](C)CC3)c12)C1CCC1 (stereo partly drawn) [Example 22.29, 3-(6-{[(1R)-1-cyclobutylethyl]amino}-8-[hydroxy(phenyl)methyl]-7-[(trans-4-methylcyclohexyl)methyl] -7H-purin-2-yl)-1,2,4-oxadiazol-5(4H)-one] to CC(C)C(O)c1nc2nc(-c3noc(=O)[nH]3)nc(N[C@H](C)C3CCC3)c2n1C[C@H]1CC[C@H](C)CC1 (stereo partly drawn) [Example 22.45, 3-(6-{[(1R)-1-cyclobutylethyl]amino}-8-(1-hydroxy-2-methylpropyl)-7-[(trans-4-methylcyclohexyl)methyl] -7H-purin-2-yl)-1,2,4-oxadiazol-5(4H)-one], the IC50 rises from 1.66 nM to 3.66 nM (2.2-fold).

C[C@@H](Nc1nc(-c2noc(=O)[nH]2)nc2nc(C3(c4ccc(F)cc4)CC3)n(C[C@H]3CC[C@H](C)CC3)c12)C1CCC1 [Example 22.30, 3-(6-{[(1R)-1-cyclobutylethyl]amino}-8-[1-(4-fluorophenyl)cyclopropyl] -7-[(trans-4-methylcyclohexyl)methyl] -7H-purin-2-yl)-1,2,4-oxadiazol-5(4H)-one] and C[C@@H](Nc1nc(-c2noc(=O)[nH]2)nc2nc(C3(O)CCCCC3)n(C[C@H]3CC[C@H](C)CC3)c12)C1CCC1 [Example 22.43, 3-(6-{[(1R)-1-cyclobutylethyl]amino}-8-(1-hydroxycyclohexyl)-7-[(trans-4-methylcyclohexyl)methyl] -7H-purin-2-yl)-1,2,4-oxadiazol-5(4H)-one] are within 1.5-fold of each other in IC50: 10.1 nM for the first, 13.1 nM for the second.

C[C@@H](Nc1nc(-c2noc(=O)[nH]2)nc2nc(C(=O)C3CCOCC3)n(C[C@H]3CC[C@H](C)CC3)c12)C1CCC1 [Example 22.31, 3-[6-{[(1R)-1-cyclobutylethyl]amino}-7-[(trans-4-methylcyclohexyl)methyl] -8-(tetrahydro-2H-pyran-4-ylcarbonyl)-7H-purin-2-yl]-1,2,4-oxadiazol-5(4H)-one] and C=C(c1nc2nc(-c3noc(=O)[nH]3)nc(N[C@H](C)C3CCC3)c2n1C[C@H]1CC[C@H](C)CC1)C1CCOCC1 [Example 22.42, 3-(6-{[(1R)-1-cyclobutylethyl]amino}-7-[(trans-4-methylcyclohexyl)methyl] -8-[1-(tetrahydro-2H-pyran-4-yl)ethenyl]-7H-purin-2-yl)-1,2,4-oxadiazol-5(4H)-one] are within 1.5-fold of each other in IC50: 6.45 nM for the first, 5.07 nM for the second.

First: C=C(c1nc2nc(-c3noc(=O)n3C)nc(N[C@H](C)C3CCC3)c2n1C[C@H]1CC[C@H](C)CC1)C(C)(C)C [Example 22.33, 3-(6-{[(1R)-1-cyclobutylethyl]amino}-8-(2,2-dimethyl-1-methylidenepropyl)-7-[(trans-4-methylcyclohexyl)methyl] -7H-purin-2-yl)-4-methyl-1,2,4-oxadiazol-5(4H)-one]
Second: CC(C)C(O)c1nc2nc(-c3noc(=O)[nH]3)nc(N[C@H](C)C3CCC3)c2n1C[C@H]1CC[C@H](C)CC1 (stereo partly drawn) [Example 22.48, 3-(6-{[(1R)-1-cyclobutylethyl]amino}-8-(1-hydroxy-2-methylpropyl)-7-[(trans-4-methylcyclohexyl)methyl] -7H-purin-2-yl)-1,2,4-oxadiazol-5(4H)-one]
The IC50 of the first is 9.6-fold higher: 291 nM for the first, 30.2 nM for the second. The second is the more potent here.

Going from C[C@@H](Nc1nc(-c2noc(=O)[nH]2)nc2nc(C(O)C3CCOCC3)n(C[C@H]3CC[C@H](C)CC3)c12)C1CCC1 (stereo partly drawn) [Example 22.34, 3-(6-{[(1R)-1-cyclobutylethyl]amino}-8-[hydroxy(tetrahydro-2H-pyran-4-yl)methyl]-7-[(trans-4-methylcyclohexyl)methyl] -7H-purin-2-yl)-1,2,4-oxadiazol-5(4H)-one] to C[C@@H](Nc1nc(-c2noc(=O)[nH]2)nc2nc(C(O)C3CCCC3)n(C[C@H]3CC[C@H](C)CC3)c12)C1CCC1 (stereo partly drawn) [Example 22.41, 3-(6-{[(1R)-1-cyclobutylethyl]amino}-8-[cyclopentyl(hydroxy)methyl]-7-[(trans-4-methylcyclohexyl)methyl] -7H-purin-2-yl)-1,2,4-oxadiazol-5(2H)-one], the IC50 falls from 24.6 nM to 1.21 nM (20-fold). The second is the more potent here.

Going from C[C@@H](Nc1nc(-c2noc(=O)[nH]2)nc2nc(C(C)(O)c3ccncc3)n(C[C@H]3CC[C@H](C)CC3)c12)C1CCC1 (stereo partly drawn) [Example 22.36, 3-(6-{[(1R)-1-cyclobutylethyl]amino}-8-(1-hydroxy-1-pyridin-4-ylethyl)-7-[(trans-4-methylcyclohexyl)methyl] -7H-purin-2-yl)-1,2,4-oxadiazol-5(4H)-one] to C[C@@H](Nc1nc(-c2noc(=O)[nH]2)nc2nc(C(C)(O)c3cccnc3)n(C[C@H]3CC[C@H](C)CC3)c12)C1CCC1 (stereo partly drawn) [Example 22.40, 3-(6-{[(1R)-1-cyclobutylethyl]amino}-8-(1-hydroxy-1-pyridin-3-ylethyl)-7-[(trans-4-methylcyclohexyl)methyl] -7H-purin-2-yl)-1,2,4-oxadiazol-5(2H)-one], the IC50 rises from 13.6 nM to 41.6 nM (3.1-fold).

Compared with C[C@@H](Nc1nc(-c2noc(=O)[nH]2)nc2nc(C(C)(O)C3CCOCC3)n(C[C@H]3CC[C@H](C)CC3)c12)C1CCC1 (stereo partly drawn) [Example 22.38, 3-(6-{[(1R)-1-cyclobutylethyl]amino}-8-[1-hydroxy-1-(tetrahydro-2H-pyran-4-yl)ethyl]-7-[(trans-4-methylcyclohexyl)methyl] -7H-purin-2-yl)-1,2,4-oxadiazol-5(4H)-one], C[C@@H](Nc1nc(-c2noc(=O)[nH]2)nc2nc(C3CCCCC3O)n(C[C@H]3CC[C@H](C)CC3)c12)C1CCC1 (stereo partly drawn) [Example 22.46, 3-(6-{[(1R)-1-cyclobutylethyl]amino}-8-(2-hydroxycyclohexyl)-7-[(trans-4-methylcyclohexyl)methyl] -7H-purin-2-yl)-1,2,4-oxadiazol-5(4H)-one] is 93-fold higher in IC50: 4.76 nM for the first, 445 nM for the second.

For C[C@@H](Nc1nc(-c2noc(=O)[nH]2)nc2nc(C(O)C3CCCC3)n(C[C@H]3CC[C@H](C)CC3)c12)C1CCC1 (stereo partly drawn) [Example 22.47, 3-(6-{[(1R)-1-cyclobutylethyl]amino}-8-[cyclopentyl(hydroxy)methyl]-7-[(trans-4-methylcyclohexyl)methyl] -7H-purin-2-yl)-1,2,4-oxadiazol-5(4H)-one], the IC50 was 5.04 nM.
